# Source: patent EP1900728A1 (Genecare Research Institute Co., Ltd, priority 2005, dated 2006)
# Molecular target: T1, IκBα ubiquitinating enzyme (SCF complex: ROC1, Cullin1, Skp1, His-TrCP1; with E1, UbcH5b) (Homo sapiens, UniProt P62877+P63208+Q13616+Q9Y297)
# T1 construct: His (polyhistidine); made in house; host or cells: insect cells (baculovirus) for the SCF complex and His-E1; E. coli for His-UBCH5b
# Test: Measurement of ubiquitinating enzyme activity (IκBα ubiquitination, time-resolved fluorescence with Eu(K)-labeled ubiquitin and XL665-labeled anti-GST antibody)
# Assay type: biochemical
# Conditions: enzyme activity inhibition test, method (1), Table 5; read-out: EVALUATION
# Description: Method 1: Measurement of ubiquitinating enzyme activity
# A recombinant vector His-UBCH5b containing a polyhistidine tag (His) and UBCH5b was prepared. E. coli was transformed with the vector, the protein was expressed, and affinity purification was carried out using Ni-NTA agarose (Qiagen). Four types of recombinant baculoviruses (ROC1, Cullin1, Skp1, and His-TrCP1) were prepared for the SCF complex protein, insect cells were infected in quadruplicate for expression, and affinity purification was carried out using Ni-NTA agarose. Recombinant baculoviruses His-IKKβ, His-E1 were prepared. The insect cells were infected with each of those for expression, and affinity purification was carried out using Ni-NTA agarose. A recombinant vector GST-IκBα was prepared by fusing glutathione-S-transferase tag (GST) and IκBα, E. coli was transformed with the vector for the protein expression, and affinity purification was carried out using glutathione sepharose (Amersham Biosciences). Genetic transformants were prepared by PCR amplification followed by recombination, all of which were based on published human-derived sequences.
# Phosphorylation reaction of IκBα was performed by incubating the above-mentioned assay buffer (50 mM Tris-HCl (pH7.4), 2 mM ATP, 5 mM MgCl2, 0.5 mM DTT, 0.1% BSA) containing IκBα and IKKβ at room temperature for 1 hour. Ubiquitination reactions were carried out as follows. Compound samples at various concentrations, ubiquitin, Eu (K)-labeled ubiquitin, E1, UbcH5b, and SCF complex were added to phosphorylated IκBα, and then this was incubated at room temperature for 30 minutes. The reaction was terminated by adding EDTA, the above-mentioned revelation buffer (100 mM phosphate buffer (pH7.0), 0.5 M KF, 0.1% BSA) containing XL665-labeled anti-GST antibody was added and this was left to stand at room temperature for 2 hours. Measurements were made using ARVO-HTS (Perkin Elmer). The ratio of fluorescence intensities at 620 nm and 665 nm (Em 665 nm/Em 620 nm x 10,000) with excitation light at 337 nm was measured.
# The ubiquitination level without the addition of a compound sample was used as the control value, and the level in the absence of SCF complex was used as the blank value for the assays. Inhibitory activities of the compounds were indicated as % inhibition = 100 - (value with a compound sample added - blank value) / (control value - blank value) x 100. IC50 was indicated as the concentration of the compound showing 50% inhibition. Eu (K)-labeled ubiquitin, XL665-labeled anti-GST antibody, and XL665-labeled anti-His antibody were purchased from CIS bio international. Costar solid black plates (96 wells) were used for the assays.
# T1 sequence (Q9Y297 whole entry): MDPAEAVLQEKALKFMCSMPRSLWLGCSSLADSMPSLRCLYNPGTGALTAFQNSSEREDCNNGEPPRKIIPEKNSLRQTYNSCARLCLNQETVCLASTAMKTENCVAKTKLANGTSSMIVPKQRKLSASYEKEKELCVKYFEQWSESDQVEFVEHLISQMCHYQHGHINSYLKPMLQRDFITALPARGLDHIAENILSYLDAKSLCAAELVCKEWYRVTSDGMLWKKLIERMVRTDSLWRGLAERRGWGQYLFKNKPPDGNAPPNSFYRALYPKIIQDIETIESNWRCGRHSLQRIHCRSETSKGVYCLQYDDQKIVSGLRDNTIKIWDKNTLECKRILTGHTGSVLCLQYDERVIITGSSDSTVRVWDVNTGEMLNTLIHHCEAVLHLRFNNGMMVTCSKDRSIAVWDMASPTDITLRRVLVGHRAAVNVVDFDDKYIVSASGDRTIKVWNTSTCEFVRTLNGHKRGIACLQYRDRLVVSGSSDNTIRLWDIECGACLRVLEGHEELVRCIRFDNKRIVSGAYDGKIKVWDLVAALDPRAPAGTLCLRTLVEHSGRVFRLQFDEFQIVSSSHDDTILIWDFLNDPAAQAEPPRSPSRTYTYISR
# T1 sequence (Q13616 whole entry): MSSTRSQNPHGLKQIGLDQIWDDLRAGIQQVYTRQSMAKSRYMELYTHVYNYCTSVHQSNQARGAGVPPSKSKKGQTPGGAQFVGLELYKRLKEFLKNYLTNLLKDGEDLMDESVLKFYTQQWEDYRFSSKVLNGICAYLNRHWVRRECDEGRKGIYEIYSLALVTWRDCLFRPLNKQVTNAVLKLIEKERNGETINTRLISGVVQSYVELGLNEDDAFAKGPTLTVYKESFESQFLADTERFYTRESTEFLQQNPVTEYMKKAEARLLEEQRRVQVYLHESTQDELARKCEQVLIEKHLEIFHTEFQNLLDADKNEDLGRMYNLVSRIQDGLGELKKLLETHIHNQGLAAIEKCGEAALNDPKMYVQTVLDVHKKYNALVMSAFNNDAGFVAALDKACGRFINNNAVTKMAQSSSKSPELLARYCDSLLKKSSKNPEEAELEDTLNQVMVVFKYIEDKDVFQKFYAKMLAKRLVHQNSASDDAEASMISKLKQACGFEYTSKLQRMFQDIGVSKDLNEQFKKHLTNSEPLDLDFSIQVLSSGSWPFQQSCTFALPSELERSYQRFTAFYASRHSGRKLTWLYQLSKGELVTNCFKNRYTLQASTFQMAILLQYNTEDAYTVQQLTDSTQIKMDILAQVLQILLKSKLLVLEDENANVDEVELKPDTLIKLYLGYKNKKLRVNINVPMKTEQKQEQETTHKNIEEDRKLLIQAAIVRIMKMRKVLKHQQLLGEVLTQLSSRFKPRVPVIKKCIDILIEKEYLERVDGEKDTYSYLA
# T1 sequence (P63208 whole entry): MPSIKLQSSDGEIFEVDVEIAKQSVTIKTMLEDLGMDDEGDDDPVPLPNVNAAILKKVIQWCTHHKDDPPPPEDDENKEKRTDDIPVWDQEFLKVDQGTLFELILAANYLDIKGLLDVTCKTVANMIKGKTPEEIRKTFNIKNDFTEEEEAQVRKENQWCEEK
# T1 sequence (P62877 whole entry): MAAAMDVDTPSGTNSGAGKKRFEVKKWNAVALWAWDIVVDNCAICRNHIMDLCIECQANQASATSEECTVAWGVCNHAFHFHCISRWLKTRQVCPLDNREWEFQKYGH
row,IC50 [µM],Structure (SMILES)
1,10 to 20,O=C(O)c1ccc(N2N=C(c3cccnc3)/C(=C/c3ccc(-c4ccccc4F)o3)C2=O)cc1 [Compound 339]
2,10 to 20,O=C(O)c1ccc(N2N=C(c3ccncc3)/C(=C/c3ccc(-c4ccccc4F)o3)C2=O)cc1 [Compound 341]
3,< 40,COc1ccc(C2=NN(c3ccc(C(=O)O)cc3)C(=O)C2=Cc2ccc(-n3cccn3)cc2)cc1OC [Compound 342]
4,< 40,COc1ccc(C2=NN(c3ccc(C(=O)O)cc3)C(=O)C2=Cc2ccc(-n3cncn3)cc2)cc1OC [Compound 343]
5,< 40,COC(=O)N1CCN(c2ccc(C=C3C(=O)N(c4ccc(C(=O)O)cc4)N=C3c3ccncc3)cc2)CC1 [Compound 344]
6,10 to 20,O=C(O)c1ccc(N2N=C(c3cccnc3)C(=Cc3ccc4ccccc4c3)C2=O)cc1 [Compound 345]
7,< 10,CC1=NN(c2ccc(C(=O)N3CCC(C(=O)O)CC3)cc2)C(=O)/C1=C\c1ccc2[nH]ccc2c1 [Compound 352]
8,< 10,CC1=NN(c2ccc(C(=O)N3CCN(c4ccccc4)CC3)cc2)C(=O)C1=Cc1ccc2[nH]ccc2c1 [Compound 353]
9,< 10,CC1=NN(c2cccc(C(=O)O)c2)C(=O)/C1=C\c1cccc2[nH]ccc12 [Compound 355]
10,< 10,CC1=NN(c2cccc(C(=O)O)c2)C(=O)/C1=C\c1cccc2cc[nH]c12 [Compound 356]
11,< 10,CC1=NN(c2ccc(C(=O)N3CCOCC3)cc2)C(=O)/C1=C\c1ccc2[nH]ccc2c1 [Compound 357]
12,< 10,CC1=NN(c2ccc(C(=O)N3CCCCC3)cc2)C(=O)/C1=C\c1ccc2[nH]ccc2c1 [Compound 358]
13,< 10,CC1=NN(c2cccc(C(=O)O)c2)C(=O)C1=Cc1cc2ccccc2n1C [Compound 359]
14,< 10,CC1=NN(c2ccc(C(=O)O)cc2)C(=O)/C1=C\c1cc2ccccc2n1C [Compound 360]
15,< 10,CC1=NN(c2ccc(C(=O)N3CCC(CO)CC3)cc2)C(=O)/C1=C\c1ccc2[nH]ccc2c1 [Compound 361]
16,< 10,CC1=NN(c2ccc(C(=O)N3CCCC3CO)cc2)C(=O)/C1=C\c1ccc2[nH]ccc2c1 (centres unmarked) [Compound 362]
17,10 to 20,CC1=NN(c2ccc(C(=O)N(C)C)cc2)C(=O)/C1=C\c1ccc2[nH]ccc2c1 [Compound 363]
18,< 10,CC1=NN(c2cccc(C(=O)O)c2)C(=O)/C1=C\c1ccc2[nH]ccc2c1 [Compound 364]
19,< 10,CC1=NN(c2cccc(C(=O)O)c2)C(=O)/C1=C\c1ccc2occc2c1 [Compound 368]
20,< 10,CC1=NN(c2cccc(C(=O)N3CCCCC3)c2)C(=O)/C1=C\c1ccc2[nH]ccc2c1 [Compound 369]
21,< 10,CC1=NN(c2cccc(C(=O)N3CCC(CO)CC3)c2)C(=O)/C1=C\c1ccc2[nH]ccc2c1 [Compound 371]

row,IC50 [µM],Structure (SMILES)
1,< 10,CC1=NN(c2cccc(C(=O)N3CCC(C(=O)O)CC3)c2)C(=O)/C1=C\c1ccc2[nH]ccc2c1 [Compound 374]
2,< 10,CC1=NN(c2cccc(C(=O)O)c2)C(=O)/C1=C\c1c[nH]c2ccc(Cl)cc12 [Compound 377]
3,< 10,CC1=NN(c2ccc(C(=O)O)cc2)C(=O)C1=Cc1c[nH]c2ccc(Cl)cc12 [Compound 378]
4,< 10,CC1=NN(c2cccc(C(=O)O)c2)C(=O)/C1=C\c1ccc(-n2cccn2)cc1 [Compound 379]
5,< 10,CC1=NN(c2ccc(C(=O)O)cc2)C(=O)/C1=C\c1ccc2cc[nH]c2c1 [Compound 380]
6,< 10,CC1=NN(c2cccc(C(=O)O)c2)C(=O)/C1=C\c1ccc2cc[nH]c2c1 [Compound 381]
7,< 40,CC1=NN(c2cccc(C(=O)N3CCC(CO)CC3)c2)C(=O)/C1=C\c1ccc2c(c1)OCCO2 [Compound 383]
8,10 to 20,CC1=NN(c2ccc(C(=O)N3CCOCC3)cc2)C(=O)/C1=C\c1ccc2c(c1)OCCO2 [Compound 386]
9,10 to 20,COc1cc(/C=C2\C(=O)N(c3cccc(C(=O)O)c3)N=C2C)ccc1OCC1CC1 [Compound 393]
10,10 to 20,COc1cc(/C=C2\C(=O)N(c3cccc(C(=O)O)c3)N=C2C)ccc1OCc1c(C)noc1C [Compound 394]
11,< 40,CCOC(=O)c1ccc(COc2ccc(/C=C3\C(=O)N(c4cccc(C(=O)O)c4)N=C3C)cc2OC)o1 [Compound 395]
12,10 to 20,CC1=NN(c2ccc(C(=O)NCc3ccc4c(c3)OCO4)cc2)C(=O)/C1=C\c1ccc2c(c1)OCCO2 [Compound 397]
13,< 40,CC1=NN(c2ccc(C(=O)NCC(C)O)cc2)C(=O)C1=Cc1ccc2c(c1)OCCO2 (centres unmarked) [Compound 398]
14,< 40,CC1=NN(c2ccc(C(=O)NCC(C)O)cc2)C(=O)C1=Cc1ccc2c(c1)OCCO2 (centres unmarked) [Compound 400]
15,10 to 20,CC1=NN(c2cccc(C(=O)NC[C@H](C)O)c2)C(=O)/C1=C\c1ccc2c(c1)OCCO2 [Compound 401]
16,10 to 20,CC1=NN(c2cccc(C(=O)O)c2)C(=O)/C1=C\c1ccc2c(c1)OCCO2 [Compound 402]
17,< 40,CC1=NN(c2cccc(C(=O)NCC3CC3)c2)C(=O)/C1=C\c1ccc2c(c1)OCCO2 [Compound 404]
18,< 40,COCCNC(=O)c1cccc(N2N=C(C)/C(=C/c3ccc4c(c3)OCCO4)C2=O)c1 [Compound 405]
19,10 to 20,COc1cc(/C=C2\C(=O)N(c3ccc(C(=O)O)cc3)N=C2C)ccc1OCC1CCCCC1 [Compound 406]
20,10 to 20,CC1=NN(c2cccc(C(=O)N(C)CCO)c2)C(=O)/C1=C\c1ccc2c(c1)OCCO2 [Compound 414]
21,10 to 20,CC1=NN(c2cccc(C(=O)O)c2)C(=O)/C1=C\c1ccoc1 [Compound 418]

row,IC50 [µM],Structure (SMILES)
1,< 10,CC1=NN(c2cccc(C(=O)O)c2)C(=O)/C1=C\c1ccc(N2CCC(CO)CC2)cc1 [Compound 421]
2,10 to 20,CC1=NN(c2cccc(C(=O)O)c2)C(=O)/C1=C\c1ccc(N2CCCC2CO)cc1 (centres unmarked) [Compound 422]
3,< 10,CC1=NN(c2cccc(C(=O)O)c2)C(=O)/C1=C\c1ccc(N2CCC(C(=O)O)CC2)cc1 [Compound 424]
4,10 to 20,CC1=NN(c2ccc(C(=O)O)cc2)C(=O)/C1=C\c1ccc(N2CCC(CO)CC2)cc1 [Compound 426]
5,10 to 20,CC1=NN(c2cccc(C(=O)O)c2)C(=O)/C1=C\c1ccc(N2CCC(N3CCCC3)CC2)cc1 [Compound 435]
6,< 10,O=C(O)c1ccc(N2N=C(c3ccoc3)/C(=C/c3ccc(N4CCC(CO)CC4)cc3)C2=O)cc1 [Compound 438]
7,< 10,CC1=NN(c2cccc(C(=O)O)c2)C(=O)/C1=C\c1ccc(N2CCN(C(=O)c3ccoc3)CC2)cc1 [Compound 444]
8,< 10,CC1=NN(c2cccc(C(=O)O)c2)C(=O)/C1=C\c1ccc(N2CCN(C(=O)c3cnoc3)CC2)cc1 [Compound 445]
9,< 40,CCOC(=O)CN1CCN(c2ccc(/C=C3\C(=O)N(c4cccc(C(=O)O)c4)N=C3C)cc2)CC1 [Compound 446]
10,< 10,CC1=NN(c2cccc(C(=O)O)c2)C(=O)/C1=C\c1ccc(N2CCN(S(C)(=O)=O)CC2)cc1 [Compound 447]
11,< 40,CC1=NN(c2ccc(C(=O)O)cc2)C(=O)C1=Cc1ccc(N2CCC(N3CCCC3)CC2)cc1 [Compound 450]
12,10 to 20,CC1=NN(c2ccc(C(=O)O)cc2)C(=O)C1=Cc1ccc(N2CCNCC2)cc1 [Compound 451]
13,< 10,CC1=NN(c2cccc(C(=O)O)c2)C(=O)/C1=C\c1ccc(N2CCNCC2)cc1 [Compound 452]
14,< 10,COCC1=NN(c2ccc(C(=O)O)cc2)C(=O)/C1=C\c1ccc2[nH]ccc2c1 [Compound 465]
15,10 to 20,CCCCC1=NN(c2cccc(C(=O)O)c2)C(=O)/C1=C\c1ccc2c(c1)OCCO2 [Compound 470]
16,10 to 20,COCC1=NN(c2cccc(C(=O)O)c2)C(=O)/C1=C\c1ccc(N2CCCC2)cc1 [Compound 471]
17,< 10,O=C(O)c1ccc(N2N=C(c3ccoc3)/C(=C/c3ccc4c(c3)OCO4)C2=O)cc1 [Compound 476]
18,< 40,COc1ccccc1-c1ccc(/C=C2\C(=O)N(c3cccc(C(=O)O)c3)N=C2C)o1 [Compound 487]
19,10 to 20,O=C(O)c1cccc(N2N=C(c3ccoc3)/C(=C/c3ccc(CO)o3)C2=O)c1 [Compound 488]
20,< 10,CC1=NN(c2cccc(C(=O)O)c2)C(=O)/C1=C\c1ccc2c(ccn2C)c1 [Compound 493]
